pIC50: −log10 of the molar value.
Legend:
[1] = target: T1, IKZF3 (Homo sapiens, UniProt Q96SW2+Q9UKT9); experiment: Western-blot assay of substrate protein degradation in hPBMCs, IKZF3; type: cell-based; details: 24 hours of compound treatment, compounds tested at 50 nM and 500 nM (concentration of the table not stated)
T1 construct: endogenous in cells; host or cells: hPBMCs (Milecell Biotechnologies)

[2] = target: T2, GSPT1 (Homo sapiens, UniProt P15170+Q96SW2); experiment: Western-blot assay of substrate protein degradation in hPBMCs, GSPT1; type: cell-based; details: 24 hours of compound treatment, compounds tested at 50 nM and 500 nM (concentration of the table not stated)
T2 construct: endogenous in cells; host or cells: hPBMCs (Milecell Biotechnologies)
T2 sequence (P15170 whole entry): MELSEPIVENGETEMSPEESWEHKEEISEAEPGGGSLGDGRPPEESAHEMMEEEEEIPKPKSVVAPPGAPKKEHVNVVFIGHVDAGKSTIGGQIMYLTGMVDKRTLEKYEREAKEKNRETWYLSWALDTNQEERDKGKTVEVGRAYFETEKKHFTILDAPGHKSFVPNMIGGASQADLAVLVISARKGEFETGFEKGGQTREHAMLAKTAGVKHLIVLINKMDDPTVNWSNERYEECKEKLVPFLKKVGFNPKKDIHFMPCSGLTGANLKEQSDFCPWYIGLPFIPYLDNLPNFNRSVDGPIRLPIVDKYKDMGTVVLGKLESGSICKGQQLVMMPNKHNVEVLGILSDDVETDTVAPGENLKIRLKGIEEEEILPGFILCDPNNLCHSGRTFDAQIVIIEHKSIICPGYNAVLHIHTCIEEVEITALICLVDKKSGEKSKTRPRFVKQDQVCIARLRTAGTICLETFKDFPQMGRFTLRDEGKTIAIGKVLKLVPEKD
T2 sequence (Q96SW2 whole entry): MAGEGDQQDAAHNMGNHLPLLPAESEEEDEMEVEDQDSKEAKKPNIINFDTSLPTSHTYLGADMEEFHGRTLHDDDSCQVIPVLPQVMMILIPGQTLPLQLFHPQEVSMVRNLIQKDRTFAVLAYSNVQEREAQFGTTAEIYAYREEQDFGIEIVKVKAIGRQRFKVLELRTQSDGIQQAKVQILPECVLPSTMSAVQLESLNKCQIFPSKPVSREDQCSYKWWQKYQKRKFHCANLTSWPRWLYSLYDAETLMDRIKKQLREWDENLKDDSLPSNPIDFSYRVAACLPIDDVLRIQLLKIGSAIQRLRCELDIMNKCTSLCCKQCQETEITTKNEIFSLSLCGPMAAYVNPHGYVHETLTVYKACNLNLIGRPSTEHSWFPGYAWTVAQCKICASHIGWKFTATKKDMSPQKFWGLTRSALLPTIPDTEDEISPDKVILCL
T2 sequence (Q16531 whole entry partner): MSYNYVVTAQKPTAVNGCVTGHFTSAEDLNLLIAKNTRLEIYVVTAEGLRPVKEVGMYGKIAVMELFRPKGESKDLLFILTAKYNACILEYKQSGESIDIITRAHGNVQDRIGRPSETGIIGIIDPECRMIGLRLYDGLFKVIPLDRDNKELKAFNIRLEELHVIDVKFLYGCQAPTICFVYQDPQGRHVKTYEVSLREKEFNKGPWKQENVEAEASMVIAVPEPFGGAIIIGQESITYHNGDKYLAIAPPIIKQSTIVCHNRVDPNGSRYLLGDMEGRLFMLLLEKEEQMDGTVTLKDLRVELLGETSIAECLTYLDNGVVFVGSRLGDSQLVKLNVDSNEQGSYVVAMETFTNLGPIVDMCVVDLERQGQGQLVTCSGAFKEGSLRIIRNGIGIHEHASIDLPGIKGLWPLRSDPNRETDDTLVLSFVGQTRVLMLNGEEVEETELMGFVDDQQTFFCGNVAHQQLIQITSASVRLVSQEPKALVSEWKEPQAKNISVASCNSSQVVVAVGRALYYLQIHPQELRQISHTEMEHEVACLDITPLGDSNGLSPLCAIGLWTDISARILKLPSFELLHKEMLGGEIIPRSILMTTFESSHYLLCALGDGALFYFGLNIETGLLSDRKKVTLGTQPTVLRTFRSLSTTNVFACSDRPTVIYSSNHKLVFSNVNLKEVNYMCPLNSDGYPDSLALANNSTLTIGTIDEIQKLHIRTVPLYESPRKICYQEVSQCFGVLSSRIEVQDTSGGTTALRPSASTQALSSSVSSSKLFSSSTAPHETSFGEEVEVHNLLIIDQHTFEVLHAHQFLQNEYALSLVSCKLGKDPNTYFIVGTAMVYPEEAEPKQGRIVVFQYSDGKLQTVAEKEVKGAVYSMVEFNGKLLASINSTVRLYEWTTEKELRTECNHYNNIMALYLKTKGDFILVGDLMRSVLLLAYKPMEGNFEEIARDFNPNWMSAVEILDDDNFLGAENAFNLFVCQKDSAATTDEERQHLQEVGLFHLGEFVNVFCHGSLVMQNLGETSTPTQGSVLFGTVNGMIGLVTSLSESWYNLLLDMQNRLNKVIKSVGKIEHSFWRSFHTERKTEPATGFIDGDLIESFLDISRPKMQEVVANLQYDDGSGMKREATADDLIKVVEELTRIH

[3] = target: T3, human Cereblon WT GST-tagged protein (Homo sapiens, UniProt Q96SW2); experiment: CRBN-binding affinity by HTRF (CEREBLON BINDING kit); details: HTRF inhibitory activity, CEREBLON BINDING kit; read-out: HTRF IC50
T3 construct: purchased CISBIO 64BDCRBNPEH
T3 sequence (Q96SW2 whole entry): as the sequence (Q96SW2 whole entry) above
Procedure: The CEREBLON BINDING kits (specification: 10,000 tests; product number: Catalog # 64BDCRBNPEH; CISBIO company) was used to determine the CRBN binding ability of the compounds to be tested through a HTRF method (homogeneous time-resolved fluorescence). The specific methods are as follows: • 1. […] Specifically, diluent #9 (1X) solution was used as the diluent, and multiple concentration gradients were set. […] Then, 2.5 µL of human Cereblon WT GST-tagged protein solution was added to each well. Finally, 5 µL of the thoroughly mixed Thalidomide-Re reagent and GST Eu antibody working solution were added to each of the aforementioned wells. […] The blank control wells were sequentially added with 2.5 µL of diluent #9 (1X) solution, 2.5 µL of binding buffer, and 5 µL of thoroughly mixed Thalidomide-Re reagent and GST Eu antibody working solution. • 4.

[4] = target: T4, IKZF1 (Homo sapiens, UniProt Q13422+Q96SW2); experiment: Western-blot assay of substrate protein degradation in hPBMCs, IKZF1; type: cell-based; details: 24 hours of compound treatment, compounds tested at 50 nM and 500 nM (concentration of the table not stated)
T4 construct: endogenous in cells; host or cells: hPBMCs (Milecell Biotechnologies)
T4 sequence (Q13422 whole entry): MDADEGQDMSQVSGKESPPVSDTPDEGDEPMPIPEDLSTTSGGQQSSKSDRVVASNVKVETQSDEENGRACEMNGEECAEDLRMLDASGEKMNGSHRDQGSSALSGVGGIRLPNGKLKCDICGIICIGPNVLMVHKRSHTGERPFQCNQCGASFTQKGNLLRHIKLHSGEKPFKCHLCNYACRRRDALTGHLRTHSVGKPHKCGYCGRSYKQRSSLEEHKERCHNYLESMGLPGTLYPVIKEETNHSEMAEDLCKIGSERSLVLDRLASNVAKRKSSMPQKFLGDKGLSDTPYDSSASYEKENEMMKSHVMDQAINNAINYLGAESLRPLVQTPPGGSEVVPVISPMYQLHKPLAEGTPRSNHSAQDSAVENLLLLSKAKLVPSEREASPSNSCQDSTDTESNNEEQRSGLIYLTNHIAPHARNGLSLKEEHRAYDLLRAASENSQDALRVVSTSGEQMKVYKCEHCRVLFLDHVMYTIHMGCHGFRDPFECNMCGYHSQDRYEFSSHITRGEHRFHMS
T4 sequence (Q96SW2 whole entry): as the sequence (Q96SW2 whole entry) above
T4 sequence (Q16531 whole entry partner): as the sequence (Q16531 whole entry partner) above

[5] = target: T5, IKZF2 (Homo sapiens, UniProt Q96SW2+Q9UKS7); experiment: Western-blot assay of substrate protein degradation in hPBMCs, IKZF2; type: cell-based; details: 24 hours of compound treatment, compounds tested at 50 nM and 500 nM (concentration of the table not stated)
T5 construct: endogenous in cells; host or cells: hPBMCs (Milecell Biotechnologies)

[6] = target: T6, WEE1 (Homo sapiens, UniProt P30291+Q96SW2); experiment: Western-blot assay of substrate protein degradation in hPBMCs, WEE1; type: cell-based; details: 24 hours of compound treatment, compounds tested at 50 nM and 500 nM (concentration of the table not stated)
T6 construct: endogenous in cells; host or cells: hPBMCs (Milecell Biotechnologies)
T6 sequence (P30291 whole entry): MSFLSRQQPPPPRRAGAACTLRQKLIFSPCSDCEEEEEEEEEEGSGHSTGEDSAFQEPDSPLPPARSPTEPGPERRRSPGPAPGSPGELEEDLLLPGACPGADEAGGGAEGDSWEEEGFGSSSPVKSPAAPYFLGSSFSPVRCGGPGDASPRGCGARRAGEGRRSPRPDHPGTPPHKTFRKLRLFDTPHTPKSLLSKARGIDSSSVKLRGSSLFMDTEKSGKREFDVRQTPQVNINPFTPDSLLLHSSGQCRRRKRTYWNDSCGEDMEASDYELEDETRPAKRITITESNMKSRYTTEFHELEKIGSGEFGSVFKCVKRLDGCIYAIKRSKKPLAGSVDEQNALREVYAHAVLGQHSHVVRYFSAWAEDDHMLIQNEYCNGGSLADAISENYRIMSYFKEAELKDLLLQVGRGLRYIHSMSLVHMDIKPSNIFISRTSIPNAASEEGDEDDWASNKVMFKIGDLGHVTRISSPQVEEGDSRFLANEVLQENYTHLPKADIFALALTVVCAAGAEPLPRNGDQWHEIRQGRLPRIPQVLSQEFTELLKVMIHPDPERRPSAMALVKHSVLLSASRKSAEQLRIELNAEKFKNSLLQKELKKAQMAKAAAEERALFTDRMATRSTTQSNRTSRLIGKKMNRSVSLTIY
T6 sequence (Q96SW2 whole entry): as the sequence (Q96SW2 whole entry) above
T6 sequence (Q16531 whole entry partner): as the sequence (Q16531 whole entry partner) above

[7] = target: T7, CK1α (Homo sapiens, UniProt P48729+Q96SW2); experiment: Western-blot assay of substrate protein degradation in hPBMCs, CK1α; type: cell-based; details: 24 hours of compound treatment, compounds tested at 50 nM and 500 nM (concentration of the table not stated)
T7 construct: endogenous in cells; host or cells: hPBMCs (Milecell Biotechnologies)
T7 sequence (P48729 whole entry): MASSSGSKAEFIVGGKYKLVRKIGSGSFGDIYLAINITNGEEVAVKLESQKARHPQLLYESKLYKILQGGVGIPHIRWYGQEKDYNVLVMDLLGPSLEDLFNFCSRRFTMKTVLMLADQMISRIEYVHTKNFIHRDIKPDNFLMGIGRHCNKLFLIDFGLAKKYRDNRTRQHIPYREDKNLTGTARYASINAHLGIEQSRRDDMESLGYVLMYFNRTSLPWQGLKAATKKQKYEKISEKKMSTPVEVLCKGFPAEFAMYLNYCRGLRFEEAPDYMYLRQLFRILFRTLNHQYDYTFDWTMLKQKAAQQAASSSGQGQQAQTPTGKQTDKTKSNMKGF
T7 sequence (Q96SW2 whole entry): as the sequence (Q96SW2 whole entry) above
T7 sequence (Q16531 whole entry partner): as the sequence (Q16531 whole entry partner) above

T1 sequence (Q9UKT9 whole entry): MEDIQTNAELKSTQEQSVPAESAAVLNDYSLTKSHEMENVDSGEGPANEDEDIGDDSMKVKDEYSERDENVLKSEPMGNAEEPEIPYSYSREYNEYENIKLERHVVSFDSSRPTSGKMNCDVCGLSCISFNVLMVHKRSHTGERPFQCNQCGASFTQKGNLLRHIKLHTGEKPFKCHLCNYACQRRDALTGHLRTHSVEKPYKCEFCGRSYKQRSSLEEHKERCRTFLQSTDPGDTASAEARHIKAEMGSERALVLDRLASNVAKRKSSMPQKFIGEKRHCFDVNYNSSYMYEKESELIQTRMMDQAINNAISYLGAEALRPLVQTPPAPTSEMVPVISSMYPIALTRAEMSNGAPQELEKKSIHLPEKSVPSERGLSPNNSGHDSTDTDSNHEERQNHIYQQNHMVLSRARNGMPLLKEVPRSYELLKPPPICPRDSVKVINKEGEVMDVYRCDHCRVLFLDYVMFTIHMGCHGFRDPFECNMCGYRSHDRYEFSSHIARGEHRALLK
T1 sequence (Q96SW2 whole entry): as the sequence (Q96SW2 whole entry) above
T1 sequence (Q16531 whole entry partner): as the sequence (Q16531 whole entry partner) above

| SMILES | IKZF3 substrate protein remaining % [1] | GSPT1 substrate protein remaining % [2] | pIC50 [3] | IKZF 1 substrate protein remaining % [4] | IKZF2 substrate protein remaining % [5] | Weel substrate protein remaining % [6] | CK1a substrate protein remaining % [7] |
| --- | --- | --- | --- | --- | --- | --- | --- |
| O=C1CCC(N2Cc3cc(CN4CCN(c5ccncc5)CC4)ccc3C2=O)C(=O)N1 (stereo not drawn) [GT-04450, 3-(1-oxo-5-((4-(pyridin-4-yl)piperazin-1-yl)methyl)isoindolin-2-yl)piperidine-2,6-dione] | B (80%< substrate protein remaining %≤ 100%) | A (0% ≤ substrate protein remaining % ≤ 80%) | 6.00 to 6.30 | B (80%< substrate protein remaining %≤ 100%) | B (80%< substrate protein remaining %≤ 100%) | B (80%< substrate protein remaining %≤ 100%) | B (80%< substrate protein remaining %≤ 100%) |
| O=C1CCC(N2Cc3cc(CN4CCN(c5ccc(C(F)(F)F)cc5)CC4)ccc3C2=O)C(=O)N1 (stereo not drawn) [GT-04451, 3-(1-oxo-5-((4-(4-(trifluoromethyl)phenyl)piperazin-1-yl)methyl)isoindolin-2-yl)piperidine-2,6-dione] | B (80%< substrate protein remaining %≤ 100%) | A (0% ≤ substrate protein remaining % ≤ 80%) | 5.82 to 6.00 | B (80%< substrate protein remaining %≤ 100%) | B (80%< substrate protein remaining %≤ 100%) | B (80%< substrate protein remaining %≤ 100%) | B (80%< substrate protein remaining %≤ 100%) |
| O=C1CCC(N2Cc3cc(CN4CCN(c5ccc(Cl)cc5Cl)CC4)ccc3C2=O)C(=O)N1 (stereo not drawn) [GT-04464, 3-(5-((4-(2,4-dichlorophenyl)piperazin-1-yl)methyl)-1-oxoisoindolin-2-yl)piperidine-2,6-dione] | B (80%< substrate protein remaining %≤ 100%) | A (0% ≤ substrate protein remaining % ≤ 80%) | 5.82 to 6.00 | B (80%< substrate protein remaining %≤ 100%) | A (0% ≤ substrate protein remaining % ≤ 80%) | B (80%< substrate protein remaining %≤ 100%) | B (80%< substrate protein remaining %≤ 100%) |
| O=C1CCC(N2Cc3cc(CN4CCN(c5cccnn5)CC4)ccc3C2=O)C(=O)N1 (stereo not drawn) [GT-04473, 3-(1-oxo-5-((4-(pyridazin-3-yl)piperazin-1-yl)methyl)isoindolin-2-yl)piperidine-2,6-dione] | B (80%< substrate protein remaining %≤ 100%) | A (0% ≤ substrate protein remaining % ≤ 80%) | 6.00 to 6.30 | A (0% ≤ substrate protein remaining % ≤ 80%) | B (80%< substrate protein remaining %≤ 100%) | A (0% ≤ substrate protein remaining % ≤ 80%) | B (80%< substrate protein remaining %≤ 100%) |
| O=C1CCC(N2Cc3cc(CN4CCN(c5ncc(Cl)cc5Cl)CC4)ccc3C2=O)C(=O)N1 (stereo not drawn) [GT-04479, 3-(5-((4-(3,5-dichloropyridin-2-yl)piperazin-1-yl)methyl)-1-oxoisoindolin-2-yl)piperidine-2,6-dione] | A (0% ≤ substrate protein remaining % ≤ 80%) | A (0% ≤ substrate protein remaining % ≤ 80%) | 6.00 to 6.30 | B (80%< substrate protein remaining %≤ 100%) | A (0% ≤ substrate protein remaining % ≤ 80%) | B (80%< substrate protein remaining %≤ 100%) | B (80%< substrate protein remaining %≤ 100%) |
| O=C1CCC(N2Cc3cc(CN4CCN(c5ncc(C(F)(F)F)cc5Cl)CC4)ccc3C2=O)C(=O)N1 (stereo not drawn) [GT-04480, 3-(5-((4-(3-chloro-5-(trifluoromethyl)pyridin-2-yl)piperazin-1-yl)methyl)-1-oxoisoindolin-2-yl)piperidine-2,6-dione] | A (0% ≤ substrate protein remaining % ≤ 80%) | A (0% ≤ substrate protein remaining % ≤ 80%) | 5.72 to 5.82 | A (0% ≤ substrate protein remaining % ≤ 80%) | A (0% ≤ substrate protein remaining % ≤ 80%) | A (0% ≤ substrate protein remaining % ≤ 80%) | A (0% ≤ substrate protein remaining % ≤ 80%) |
| O=C1CCC(N2Cc3cc(CN4CCN(c5ccncc5Cl)CC4)ccc3C2=O)C(=O)N1 (stereo not drawn) [GT-04481, 3-(5-((4-(3-chloropyridin-4-yl)piperazin-1-yl)methyl)-1-oxoisoindolin-2-yl)piperidine-2,6-dione] | B (80%< substrate protein remaining %≤ 100%) | A (0% ≤ substrate protein remaining % ≤ 80%) | 6.00 to 6.30 | A (0% ≤ substrate protein remaining % ≤ 80%) | A (0% ≤ substrate protein remaining % ≤ 80%) | A (0% ≤ substrate protein remaining % ≤ 80%) | A (0% ≤ substrate protein remaining % ≤ 80%) |
| O=C1CCC(N2Cc3cc(CN4CCN(c5ccc(Cl)nn5)CC4)ccc3C2=O)C(=O)N1 (stereo not drawn) [GT-04482, 3-(5-((4-(6-chloropyridazin-3-yl)piperazin-1-yl)methyl)-1-oxoisoindolin-2-yl)piperidine-2,6-dione] | B (80%< substrate protein remaining %≤ 100%) | A (0% ≤ substrate protein remaining % ≤ 80%) | 6.00 to 6.30 | B (80%< substrate protein remaining %≤ 100%) | A (0% ≤ substrate protein remaining % ≤ 80%) | A (0% ≤ substrate protein remaining % ≤ 80%) | A (0% ≤ substrate protein remaining % ≤ 80%) |
| O=C1CCC(N2Cc3cc(CN4CCN(c5cnccn5)CC4)ccc3C2=O)C(=O)N1 (stereo not drawn) [GT-04483, 3-(1-oxo-5-((4-(pyrazin-2-yl)piperazin-1-yl)methyl)isoindolin-2-yl)piperidine-2,6-dione] | B (80%< substrate protein remaining %≤ 100%) | A (0% ≤ substrate protein remaining % ≤ 80%) | 6.00 to 6.30 | B (80%< substrate protein remaining %≤ 100%) | A (0% ≤ substrate protein remaining % ≤ 80%) | A (0% ≤ substrate protein remaining % ≤ 80%) | A (0% ≤ substrate protein remaining % ≤ 80%) |
| O=C1CCC(N2Cc3cc(CN4CCN(c5ncccn5)CC4)ccc3C2=O)C(=O)N1 (stereo not drawn) [GT-04484, 3-(1-oxo-5-((4-(pyrimidin-2-yl)piperazin-1-yl)methyl)isoindolin-2-yl)piperidine-2,6-dione] | B (80%< substrate protein remaining %≤ 100%) | A (0% ≤ substrate protein remaining % ≤ 80%) | 6.00 to 6.30 | B (80%< substrate protein remaining %≤ 100%) | A (0% ≤ substrate protein remaining % ≤ 80%) | A (0% ≤ substrate protein remaining % ≤ 80%) | A (0% ≤ substrate protein remaining % ≤ 80%) |
| O=C1CCC(N2Cc3cc(CN4CCN(c5ncncn5)CC4)ccc3C2=O)C(=O)N1 (stereo not drawn) [GT-04486, 3-(5-((4-(1,3,5-triazin-2-yl)piperazin-1-yl)methyl)-1-oxoisoindolin-2-yl)piperidine-2,6-dione] | B (80%< substrate protein remaining %≤ 100%) | A (0% ≤ substrate protein remaining % ≤ 80%) | 6.00 to 6.30 | A (0% ≤ substrate protein remaining % ≤ 80%) | A (0% ≤ substrate protein remaining % ≤ 80%) | A (0% ≤ substrate protein remaining % ≤ 80%) | A (0% ≤ substrate protein remaining % ≤ 80%) |
| O=C1CCC(N2Cc3cc(CN4CCC(c5ccccc5C(F)(F)F)CC4)ccc3C2=O)C(=O)N1 (stereo not drawn) [GT-04488, 3-(1-oxo-5-((4-(2-(trifluoromethyl)phenyl)piperidin-1-yl)methyl)isoindolin-2-yl)piperidine-2,6-dione] | B (80%< substrate protein remaining %≤ 100%) | A (0% ≤ substrate protein remaining % ≤ 80%) | 6.00 to 6.30 | B (80%< substrate protein remaining %≤ 100%) | A (0% ≤ substrate protein remaining % ≤ 80%) | B (80%< substrate protein remaining %≤ 100%) | A (0% ≤ substrate protein remaining % ≤ 80%) |

Source: patent EP4745137A1 (Gluetacs Therapeutics (Shanghai) Co., Ltd., priority 2023, dated 2025)
